Test [1] can be described thus: Fe^2+ chelation assay (ferrozine, cell-free).
For the next test, the system named is N1E 115 cells. Put plainly: Neuroblastoma cell viability assay (WST-1), N1E 115. Type of test: cell-based, murine. To be noted: N1E 115, 96 hours.
A further test concerns SH—SY5Y cells. The test is described as follows: Neuroblastoma cell viability assay (WST-1), SH—SY5Y. In kind it is cell-based, human.
[2] abbreviates: cell-free, 0.5 mM FeSO4, 1 mM ferrozine, titration curves, absorbance 562 nm.
Setting [3] is: SH—SY5Y, 96 hours, dose-response.

Results on eight molecules are retold here after patent publication US20080292733A1, “Antioxidant and Fe2+ Chelating Properties of Herbal Extracts” (priority 2005, published 2008).

Where two headings read alike, the source gives them in different places.

In the case of `CC(C)=CCC[C@](C)(O[C@@H]1O[C@H](CO[C@@H]2O[C@@H](CO)[C@H](O)[C@H]2O)[C@@H](O)[C@H](O)[C@H]1O)[C@H]1CC[C@]2(C)[C@@H]1[C@H](O)C[C@@H]1[C@@]3(C)CC[C@H](O[C@@H]4O[C@H](CO)[C@@H](O)[C@H](O)[C@H]4O[C@@H]4O[C@H](CO)[C@@H](O)[C@H](O)[C@H]4O)C(C)(C)[C@@H]3CC[C@]12C` [Rc, ginsenoside Rc], the “inhibition of Fe(ferrozine)3^2+ complex formation” value in test [1] (setting [2]) is “demonstrated the ability to inhibit Fe^2+ interaction with ferrozine”.

`CC(=O)N(O)CCCCCNC(=O)CCC(=O)N(O)CCCCCNC(=O)CCC(=O)N(O)CCCCCN` [DFO, desferroxamine, reference compound]: the “effect on cell number (dose-response curve)” value (shortened to “effect on cell number”) is “suppress neuroblastoma cell number” in the test on N1E 115 cells and “biphasic effects” in the test on SH—SY5Y cells (setting [3]). Also, the “inhibition of Fe(ferrozine)3^2+ complex formation” value in test [1] (setting [2]) is “able to prevent Fe(ferrozine)3^2+ complex formation”.

Regarding `C[C@@H]1C(=O)O[C@H]2C[C@@]34[C@H]5C[C@@H](C(C)(C)C)[C@]36[C@@H](OC(=O)[C@@H]6O)O[C@@]4(C(=O)O5)[C@]21O` [ginkgolide A], the “effect on cell number” value in the test on N1E 115 cells and in the test on SH—SY5Y cells (setting [3]) was “Only quercetin demonstrated significant inhibition of cell number” throughout. Moreover, the “inhibition of Fe(ferrozine)3^2+ complex formation” value in test [1] is “no activity”.

With `CC(C)=CCC[C@](C)(O[C@@H]1O[C@H](CO)[C@@H](O)[C@H](O)[C@H]1O)[C@H]1CC[C@]2(C)[C@@H]1[C@H](O)C[C@@H]1[C@@]3(C)CC[C@H](O[C@@H]4O[C@H](CO)[C@@H](O)[C@H](O)[C@H]4O[C@@H]4O[C@H](CO)[C@@H](O)[C@H](O)[C@H]4O)C(C)(C)[C@@H]3CC[C@]12C` [Rd, ginsenoside Rd], the “inhibition of Fe(ferrozine)3^2+ complex formation” value in test [1] (setting [2]) was “demonstrated the ability to inhibit Fe^2+ interaction with ferrozine”.

In the case of `CC(C)=CCC[C@](C)(O[C@@H]1O[C@H](CO[C@@H]2O[C@H](CO)[C@@H](O)[C@H](O)[C@H]2O)[C@@H](O)[C@H](O)[C@H]1O)[C@H]1CC[C@]2(C)[C@@H]1[C@H](O)C[C@@H]1[C@@]3(C)CC[C@H](O[C@@H]4O[C@H](CO)[C@@H](O)[C@H](O)[C@H]4O[C@@H]4O[C@H](CO)[C@@H](O)[C@H](O)[C@H]4O)C(C)(C)[C@@H]3CC[C@]12C` [Rb1, ginsenoside Rb1], in test [1] (setting [2]), the “inhibition of Fe(ferrozine)3^2+ complex formation” value is reported as “demonstrated the ability to inhibit Fe^2+ interaction with ferrozine”.

As for `CC1C(=O)OC2C(O)C34C5CC(C(C)(C)C)C36C(OC(=O)C6O)OC4(C(=O)O5)C12O` (stereo not shown) [ginkgolide B], the “effect on cell number” value in the test with N1E 115 cells and in the test with SH—SY5Y cells (setting [3]) was “Only quercetin demonstrated significant inhibition of cell number” each time. Besides, in test [1] (setting [2]), the “inhibition of Fe(ferrozine)3^2+ complex formation” value is “no activity”.

`O=c1c(O)c(-c2ccc(O)c(O)c2)oc2cc(O)cc(O)c12` [quercetin]: the “concentration at which significant (P<0.05) inhibition of cell number is first apparent” value in the test on N1E 115 cells was determined as 5 µg/mL; in the test on SH—SY5Y cells (SH—SY5Y, 96 hours), 5 µg/mL. In addition, the “effect on cell number” value in the test on N1E 115 cells and in the test on SH—SY5Y cells (setting [3]) was “significant inhibition of cell number” in each case. Besides, the “inhibition of Fe(ferrozine)3^2+ complex formation” value in test [1] (setting [2]) is recorded as “able to inhibit Fe(ferrozine)3^2+ complex formation”.

For `CC(C)=CCC[C@]1(C)[C@@H](CC=C(C)C)C[C@@]2(CC=C(C)C)C(=O)[C@]1(C(=O)C(C)C)C(=O)C(CC=C(C)C)=C2O` [hyperforin], the “effect on cell number” value in the test on N1E 115 cells was “significant and dose-dependent suppression of cell number”; with SH—SY5Y cells, “significant and dose-dependent suppression of cell number”.
